Source: patent US10428081B2, “EGFR inhibitor, preparation method and use thereof” (Shanghai Hansoh Biomedical Co., Ltd., priority 2014, dated 2019)

What was measured:
PK analysis in rats = assay type: in vivo, Sprague Dawley (SD) rats; conditions: SD rats, single intragastric administration, 5 mg/10 ml/kg, plasma; for AUC(0-t): read-out: AUC0-8
Method: 1.0 ml of intravenous blood was collected and placed in a K2EDTA test tube. The blood was centrifuged at RT 6000 rpm for 5 minutes to isolate the plasma, which was stored at −80° C.
Liquid Chromatography: • Condition of Liquid chromatography Shimadzu LC-20AD pump • Chromatographic column: phenomenex Gemiu 5 μm C18 50×4.6 mm • Mobile phase: Solution A is 0.1% formic acid aqueous solution, and Solution B is acetonitrile • Flow rate: 0.8 mL/min • Elution time: 0-3.5 minutes, the eluent used was as follows:
Condition of mass spectrometer: positive ion electrospray ionization (ESI) mode. • Analysis results of liquid chromatography and mass spectrometry:

in vivo = conditions: beagle, dog, po, 2 mg/kg
Method: 1. 1.0 ml of intravenous blood was collected and placed in a Heparin test tube. The blood was centrifuged at RT 6000 rpm for 5 minutes to isolate the plasma, which was stored at −80° C.
2. 160 μL of acetonitrile were added to 40 μL of plasma sample for precipitation, and then the mixture was centrifuged at 3500 rpm for 5 minutes.
3. 100 μL of treated solution was taken, and the concentration of the test compound was analyzed by LC/MS/MS. The LC/MS/MS analytical instrument was AB Sciex API 4000.
Liquid Chromatography: • Condition of Liquid chromatography: Shimadzu LC-20AD pump • Chromatographic column: phenomenex Gemiu 5 μm C18 50×4.6 mm • Mobile phase: Solution A is 0.1% formic acid aqueous solution, and Solution B is acetonitrile • Flow rate: 0.8 mL/min • Elution time: 0-3.5 minutes, the eluent used was as follows: […]

[1] = target: exon 20 T790M mutant-type EGFR enzyme (Homo sapiens, UniProt P00533, T790M); test: Enzymologic experiment of T790M mutant-type EGFR (TR-FRET); assay type: biochemical; conditions: for IC50: T790M EGFR enzyme, TR-FRET, ATP 1 to 10 uM; for Selectivity of wild-type/mutant-type: ratio WT IC50 / T790M IC50, enzyme
In short: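 Compound dilutions preincubated 10 min at room temperature; reaction ended with EDTA, then labeled antibody added for 1 h at room temperature. Inhibition rates derived from TR-FRET fluorescence signal, and IC50 obtained by curve fitting across concentrations.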

wild-type EGFR enzyme = wild-type EGFR enzyme (Homo sapiens, UniProt P00533); test: Enzymologic experiment of wild-type (WT) EGFR (TR-FRET); assay type: biochemical; conditions: ATP 0.1 to 5 uM
In short: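 Wild-type EGFR (0.1 to 1 nM final) preincubated with serially diluted compound for 10 minutes at room temperature; reaction stopped with EDTA, then labelled antibody added for 1 hour at room temperature. TR-FRET signal converted to inhibition rates; IC50 from curve fitting across concentrations.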

NCI-H1975 cells = test: Inhibition of NCI-H1975 cell proliferation (CellTiter-Glo); assay type: cell-based; conditions: for IC50: Homo sapiens, NCI-H1975, 72 h, NCI-H1975 cell proliferation, 72 hours, CellTiter-Glo, read-out: EGFR IC50 (nM) H1975; for Selectivity of wild-type/mutant-type: ratio A431 IC50 / H1975 IC50, cells
A431 cells = test: Inhibition of A431 cell proliferation (CellTiter-Glo); assay type: cell-based; conditions: Homo sapiens, A-431, 72 h, read-out: EGFR IC50 (nM) A431
In short: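 Viability read as CellTiter-Glo luminescence; IC50 by curve fitting of inhibition rates.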

[2] = Sprague-Dawley, rat, po, 5 mg/kg

Chain of exon 20 T790M mutant-type EGFR enzyme (P00533 25-1210 T790M): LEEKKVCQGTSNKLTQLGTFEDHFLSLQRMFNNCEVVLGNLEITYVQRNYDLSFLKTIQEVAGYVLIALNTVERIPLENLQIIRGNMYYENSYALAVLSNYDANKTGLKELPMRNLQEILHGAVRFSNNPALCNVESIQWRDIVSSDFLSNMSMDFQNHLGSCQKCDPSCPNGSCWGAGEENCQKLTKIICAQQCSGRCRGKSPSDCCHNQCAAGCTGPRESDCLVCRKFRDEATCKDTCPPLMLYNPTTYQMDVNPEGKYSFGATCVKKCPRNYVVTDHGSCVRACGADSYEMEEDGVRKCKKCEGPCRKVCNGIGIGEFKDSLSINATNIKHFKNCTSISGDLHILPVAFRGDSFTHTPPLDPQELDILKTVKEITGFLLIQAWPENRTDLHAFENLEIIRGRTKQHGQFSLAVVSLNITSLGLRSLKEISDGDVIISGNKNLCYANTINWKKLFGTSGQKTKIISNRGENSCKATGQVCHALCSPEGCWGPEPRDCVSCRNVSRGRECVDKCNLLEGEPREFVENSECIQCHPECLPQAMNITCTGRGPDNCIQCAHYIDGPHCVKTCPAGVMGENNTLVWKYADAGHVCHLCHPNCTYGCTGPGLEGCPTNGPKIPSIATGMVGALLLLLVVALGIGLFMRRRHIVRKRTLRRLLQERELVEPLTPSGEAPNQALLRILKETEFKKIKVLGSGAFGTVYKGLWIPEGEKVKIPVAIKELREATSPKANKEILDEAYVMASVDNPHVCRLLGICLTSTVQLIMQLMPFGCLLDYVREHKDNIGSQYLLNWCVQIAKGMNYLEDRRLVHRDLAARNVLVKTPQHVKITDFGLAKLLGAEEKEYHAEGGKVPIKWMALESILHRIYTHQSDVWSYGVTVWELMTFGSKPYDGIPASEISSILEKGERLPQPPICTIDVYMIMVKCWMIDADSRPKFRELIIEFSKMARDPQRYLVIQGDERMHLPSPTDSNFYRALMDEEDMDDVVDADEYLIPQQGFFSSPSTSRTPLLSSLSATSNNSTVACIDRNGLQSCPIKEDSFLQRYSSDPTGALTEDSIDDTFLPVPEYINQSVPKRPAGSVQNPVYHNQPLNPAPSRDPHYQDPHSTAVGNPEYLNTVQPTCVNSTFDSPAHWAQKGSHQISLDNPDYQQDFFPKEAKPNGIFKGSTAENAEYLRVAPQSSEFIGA
Chain of wild-type EGFR enzyme (P00533 25-1210): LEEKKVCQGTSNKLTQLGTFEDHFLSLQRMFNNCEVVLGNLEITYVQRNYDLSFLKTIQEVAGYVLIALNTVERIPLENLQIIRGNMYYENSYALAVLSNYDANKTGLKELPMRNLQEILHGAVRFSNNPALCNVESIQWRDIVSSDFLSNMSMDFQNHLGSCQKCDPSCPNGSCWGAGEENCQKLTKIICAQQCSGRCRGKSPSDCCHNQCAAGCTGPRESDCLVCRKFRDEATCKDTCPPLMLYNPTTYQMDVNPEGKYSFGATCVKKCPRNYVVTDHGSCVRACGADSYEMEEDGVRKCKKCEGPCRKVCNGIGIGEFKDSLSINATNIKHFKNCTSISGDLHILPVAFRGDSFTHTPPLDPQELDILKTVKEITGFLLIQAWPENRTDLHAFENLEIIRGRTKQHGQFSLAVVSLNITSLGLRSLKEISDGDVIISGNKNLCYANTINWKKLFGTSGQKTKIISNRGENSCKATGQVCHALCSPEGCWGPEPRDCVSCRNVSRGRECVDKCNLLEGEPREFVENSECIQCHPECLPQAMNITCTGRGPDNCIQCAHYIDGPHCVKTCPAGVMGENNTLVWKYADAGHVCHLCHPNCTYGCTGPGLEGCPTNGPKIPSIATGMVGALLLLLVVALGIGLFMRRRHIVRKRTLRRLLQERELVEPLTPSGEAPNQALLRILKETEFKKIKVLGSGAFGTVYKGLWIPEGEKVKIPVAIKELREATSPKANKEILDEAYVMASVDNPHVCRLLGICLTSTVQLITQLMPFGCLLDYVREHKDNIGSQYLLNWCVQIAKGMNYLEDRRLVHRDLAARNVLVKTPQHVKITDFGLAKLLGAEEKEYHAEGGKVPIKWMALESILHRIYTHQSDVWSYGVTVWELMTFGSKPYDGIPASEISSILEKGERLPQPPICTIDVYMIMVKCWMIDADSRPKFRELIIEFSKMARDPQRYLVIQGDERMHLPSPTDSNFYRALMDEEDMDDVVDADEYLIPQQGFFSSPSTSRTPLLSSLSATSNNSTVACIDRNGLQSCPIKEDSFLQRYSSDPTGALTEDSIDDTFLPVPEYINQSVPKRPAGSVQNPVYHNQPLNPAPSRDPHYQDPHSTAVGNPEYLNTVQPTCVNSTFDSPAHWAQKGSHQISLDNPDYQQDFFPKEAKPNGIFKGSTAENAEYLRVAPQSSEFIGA

SMILES | IC50 [1] | Selectivity of wild-type/mutant-type [1] | IC50 (wild-type EGFR enzyme) | IC50 (NCI-H1975 cells) | IC50 (A431 cells) | AUC(0-t) (in vivo) | t1/2 (PK analysis in rats) | AUC(0-inf) (PK analysis in rats; [2]) | Cmax (PK analysis in rats; [2]) | Tmax (PK analysis in rats; [2]) | AUC(0-t) (PK analysis in rats; [2]) | MRT inf (PK analysis in rats; Sprague-Dawley, rat, po, 5 mg/kg, read-out: MRT0-∞) | Cmax (in vivo) | MRT inf (in vivo) | Tmax (in vivo) | half-life (in vivo) | Selectivity of wild-type/mutant-type (NCI-H1975 cells)
C=CC(=O)Nc1cc(Nc2nccc(-c3cn(C)c4ccccc34)n2)c(OC)cc1N(C)CCN(C)C [AZD-9291, reference compound] |  |  |  |  |  |  | 3.8 h | 283 ng·h/mL | 58.3 ng/mL | 2 h | 278 ng·h/mL | 3.9 h | 81.4 ng/mL | 9 h | 1 h | 5.4 h | 
C=CC(=O)Nc1cc(Nc2nccc(-n3ncc4cc(OCCOC)ccc43)n2)c(OC)cc1N(C)CCN(C)C [Example 121, N-(2-((2-(dimethylamino)ethyl)(methyl)amino)-4-methoxy-5-((4-(5-(2-methoxyethoxy)-1H-indazol-1-yl)pyrimidin-2-yl)amino)phenyl)acrylamide] | 0.4 nM | 8.75 | 3.5 nM | 2.09 nM | 348 nM |  |  |  |  |  |  |  |  |  |  |  | 166.41
COc1cc(N(C)CCN(C)C)c(NC(=O)/C=C/CN(C)C)cc1Nc1nccc(-c2cn(C3CC3)c3ccccc23)n1 [Example 122, (E)-N-(5-((4-(1-cyclopropyl-1H-indol-3-yl)pyrimidin-2-yl)amino)-2-((2-(dimethylamino)ethyl)(methyl)amino)-4-methoxyphenyl)-4-(dimethylamino)but-2-enamide] | 0.49 nM | 17.14 | 8.4 nM | 114 nM | 890 nM |  |  |  |  |  |  |  |  |  |  |  | 7.84
C=CC(=O)Nc1cc(Nc2nccc(-c3cn4c5c(cccc35)CCC4)n2)c(OC)cc1N(C)CCN(C)C [Example 125, N-(5-((4-(5,6-dihydro-4H-pyrrolo[3,2,1-ij]quinolin-1-yl)pyrimidin-2-yl)amino)-2-((2-(dimethylamino)ethyl)(methyl)amino)-4-methoxyphenyl)acrylamide] | 1.42 nM | 9.15 | 13 nM | 9.58 nM | 385 nM |  |  |  |  |  |  |  |  |  |  |  | 40.18
C=CC(=O)Nc1cc(Nc2nccc(-c3cn(C)c4cc(OC)ccc34)n2)c(OC)cc1N(C)CCNC [Example 127, N-(4-methoxy-5-((4-(6-methoxy-1-methyl-1H-indol-3-yl)pyrimidin-2-yl)amino)-2-(methyl(2-(methylamino)ethyl)amino)phenyl)acrylamide] | 0.44 nM | 5.23 | 2.3 nM | 2.98 nM | 88.2 nM |  |  |  |  |  |  |  |  |  |  |  | 29.58
C#CCn1cc(-c2ccnc(Nc3cc(NC(=O)C=C)c(N(C)CCNC)cc3OC)n2)c2ccccc21 [Example 129, N-(4-methoxy-2-(methyl(2-(methylamino)ethyl)amino)-5-((4-(1-(prop-2-yn-1-yl)-1H-indol-3-yl)pyrimidin-2-yl)amino)phenyl)acrylamide] | 1.01 nM | 13.58 | 13.7 nM | 6.22 nM | 690 nM |  |  |  |  |  |  |  |  |  |  |  | 110.93
C=CC(=O)Nc1cc(Nc2nccc(-n3ncc4cc(OCCOC)ccc43)n2)c(OC)cc1N(C)CCN1CCCC1 [Example 134, N-(4-methoxy-5-((4-(5-(2-methoxyethoxy)-1H-indazol-1-yl)pyrimidin-2-yl)amino)-2-(methyl(2-(pyrrolidin-1-yl)ethyl)amino)phenyl)acrylamide] | 1.85 nM | 10.75 | 19.9 nM | 12.3 nM | 325 nM |  |  |  |  |  |  |  |  |  |  |  | 26.45
C=CC(=O)Nc1cc(Nc2nccc(-n3ncc4cc(OC)ccc43)n2)c(OC)cc1N(C)CCN1CCCC1 [Example 137, N-(4-methoxy-5-((4-(5-methoxy-1H-indazol-1-yl)pyrimidin-2-yl)amino)-2-(methyl(2-(pyrrolidin-1-yl)ethyl)amino)phenyl)acrylamide] | 1.03 nM | 6.13 | 6.31 nM | 9.52 nM | 406 nM |  |  |  |  |  |  |  |  |  |  |  | 42.70
C=CC(=O)Nc1cc(Nc2nccc(-c3cn(S(=O)(=O)N(C)C)c4ccccc34)n2)c(OC)cc1N(C)CCN1CCCC1 [Example 142, N-(5-((4-(1-(N,N-dimethylsulfamoyl)-1H-indol-3-yl)pyrimidin-2-yl)amino)-4-methoxy-2-(methyl(2-(pyrrolidin-1-yl)ethyl)amino)phenyl)acrylamide] | 0.23 nM | 7.83 | 1.8 nM | 3.16 nM | 119 nM |  |  |  |  |  |  |  |  |  |  |  | 37.53
C=CC(=O)Nc1cc(Nc2nccc(-c3cn(C4CC4)c4ccccc34)n2)c(OC)cc1N(C)CCNC [Metabolite of Example 26] |  |  |  |  |  | 2060 ng·h/mL |  |  | 16.4 ng/mL | 0.5 h | 77.4 ng·h/mL |  | 126 ng/mL |  | 6 h |  | 

Further compounds by falling IC50 [1], results first:

IC50 [1] | Selectivity of wild-type/mutant-type [1] | IC50 (wild-type EGFR enzyme) | IC50 (NCI-H1975 cells) | IC50 (A431 cells) | AUC(0-t) (in vivo) | SMILES | t1/2 (PK analysis in rats) | AUC(0-inf) (PK analysis in rats; [2]) | Cmax (PK analysis in rats; [2]) | Tmax (PK analysis in rats; [2]) | AUC(0-t) (PK analysis in rats; [2]) | MRT inf (PK analysis in rats; Sprague-Dawley, rat, po, 5 mg/kg, read-out: MRT0-∞) | Cmax (in vivo) | MRT inf (in vivo) | Tmax (in vivo) | half-life (in vivo) | Selectivity of wild-type/mutant-type (NCI-H1975 cells)
1.28 nM | 21.23 | 27.2 nM | 14.9 nM | 527 nM |  | C=CC(=O)Nc1cc(Nc2nccc(-c3cn(C4CC4)c4ccccc34)n2)c(OC)cc1N(C)CCN1CCCC1 [Example 123, N-(5-((4-(1-cyclopropyl-1H-indol-3-yl)pyrimidin-2-yl)amino)-4-methoxy-2-(methyl(2-(pyrrolidin-1-yl)ethyl)amino)phenyl)acrylamide] |  |  |  |  |  |  |  |  |  |  | 35.37
0.78 nM | 5.55 | 4.33 nM | 11.2 nM | 336 nM |  | C=CC(=O)Nc1cc(Nc2nccc(-n3ncc4ccc(OC)cc43)n2)c(OC)cc1N(C)CCN1CCCC1 [Example 136, N-(4-methoxy-5-((4-(6-methoxy-1H-indazol-1-yl)pyrimidin-2-yl)amino)-2-(methyl(2-(pyrrolidin-1-yl)ethyl)amino)phenyl)acrylamide] |  |  |  |  |  |  |  |  |  |  | 30.04
0.58 nM | 14.76 | 8.56 nM | 2.66 nM | 576 nM |  | C#CCn1cc(-c2ccnc(Nc3cc(NC(=O)C=C)c(N(C)CCN(C)C)cc3OC)n2)c2ccccc21 [Example 140, N-(2-((2-(dimethylamino)ethyl)(methyl)amino)-4-methoxy-5-((4-(1-(prop-2-yn-1-yl)-1H-indol-3-yl)pyrimidin-2-yl)amino)phenyl)acrylamide] |  |  |  |  |  |  |  |  |  |  | 216.69
0.5 nM | 9.84 | 4.92 nM | 3.37 nM | 408 nM |  | C=CC(=O)Nc1cc(Nc2nccc(-n3cnc4cc(OC)ccc43)n2)c(OC)cc1N(C)CCN1CCCC1 [Example 138, N-(4-methoxy-5-((4-(5-methoxy-1H-benzo[d]imidazol-1-yl)pyrimidin-2-yl)amino)-2-(methyl(2-(pyrrolidin-1-yl)ethyl)amino)phenyl)acrylamide] |  |  |  |  |  |  |  |  |  |  | 121.22
0.46 nM | 10.04 | 4.62 nM | 7.5 nM | 444 nM |  | C=CC(=O)Nc1cc(Nc2nccc(-n3ncc4c(OC)cccc43)n2)c(OC)cc1N(C)CCN1CCCC1 [Example 135, N-(4-methoxy-5-((4-(4-methoxy-1H-indazol-1-yl)pyrimidin-2-yl)amino)-2-(methyl(2-(pyrrolidin-1-yl)ethyl)amino)phenyl)acrylamide] |  |  |  |  |  |  |  |  |  |  | 59.19
0.44 nM | 9.50 | 4.18 nM | 8.29 nM | 377 nM |  | C=CC(=O)Nc1cc(Nc2ncc(C(F)(F)F)c(-c3cn(S(=O)(=O)N(C)C)c4cc(OC)ccc34)n2)c(OC)cc1N(C)CCN(C)C [Example 143, N-(2-((2-(dimethylamino)ethyl)(methyl)amino)-5-((4-(1-(N,N-dimethylsulfamoyl)-6-methoxy-1H-indol-3-yl)-5-(trifluoromethyl)pyrimidin-2-yl)amino)-4-methoxyphenyl)acrylamide] |  |  |  |  |  |  |  |  |  |  | 45.44
